The source made the active and inactive calls. The rule behind the calls is not given here.
Experiments:
[1] = target: T1, Protein cereblon/Histone acetyltransferase p300 (Homo sapiens, UniProt Q09472+Q96SW2); test: PROTAC activity at CRBN/p300 in human SK-HEP1 cells assessed as induction of p300 protein degradation at 0.01 uM incubated for 24 hrs relative to control; type: cell-based
[2] = target: T1, Protein cereblon/Histone acetyltransferase p300; test: PROTAC activity at CRBN/p300 in human SK-HEP1 cells assessed as induction of p300 protein degradation at 0.1 uM incubated for 24 hrs relative to control; type: cell-based
[3] = target: T1, Protein cereblon/Histone acetyltransferase p300; test: PROTAC activity at CRBN/p300 in human SK-HEP1 cells assessed as induction of p300 protein degradation at 1 uM incubated for 24 hrs relative to control; type: cell-based
SK-HEP1 [4] = test: Antiproliferative activity against human SK-HEP1 cells assessed as inhibition of cell growth incubated for 5 days by CCK-8 assay; type: functional, cell-based; details: SK-HEP1, 120 h
[5] = Antiproliferative activity against human JHH7 cells assessed as inhibition of cell growth incubated for 5 days by CCK-8 assay; type: functional, cell-based; details: JHH7, 120 h
[6] = target: CREB-binding protein/Histone acetyltransferase p300 (Homo sapiens, UniProt Q09472+Q92793); test: Inhibition of p300/CBP (unknown origin) using histone H3 (1 to 21 residues) as substrate incubated for 90 mins by AlphaLISA assay; type: protein assay
SK-HEP1 [7] = test: Induction of cell cycle arrest at G2/M phase in human SK-HEP1 cells assessed as SKP2 protein level at 2 uM incubated for 24 hrs by immunoblotting analysis (reference value: 100%); type: functional
SK-HEP1 [8] = test: Induction of cell cycle arrest at G2/M phase in human SK-HEP1 cells assessed as reduction in CDK6 protein level at 2 uM incubated for 24 hrs by immunoblotting analysis (reference value: 100%); type: functional; parameters: scale not given: the % may be the effect or the level left
Mus musculus = test: In vivo PROTAC activity at CRBN/p300 in nude mouse xenografted with human SK-HEP1 cells assessed as reduction in p300 protein level in tumor at 50 mg/kg, ip measured after 24 hrs by immunoblotting analysis; type: functional, organism-based
[9] = target: Protein cereblon/CREB-binding protein (Homo sapiens) (UniProt Q92793+Q96SW2); test: In vivo PROTAC activity at CRBN/CBP in nude mouse xenografted with human SK-HEP1 cells assessed as reduction in CBP protein level in tumor at 50 mg/kg, ip measured after 24 hrs by immunoblotting analysis; type: functional, organism-based
[10] = target: T1, Protein cereblon/Histone acetyltransferase p300; test: PROTAC activity at CRBN/p300 in human SK-HEP1 cells assessed as increase in protein ubiquitination at 2 uM incubated for 24 hrs by immunoblotting analysis (reference value: 100%); type: cell-based
[11] = target: T1, Protein cereblon/Histone acetyltransferase p300; test: PROTAC activity at CRBN/p300 in human SK-HEP1 cells assessed as increase in protein ubiquitination at 2 uM pretreated with MG132 at 1 uM followed by compound treatment and further incubated for 24 hrs by immunoblotting analysis (reference value: 100%); type: cell-based

T1 sequence (Q09472 2-2414 limits assumed): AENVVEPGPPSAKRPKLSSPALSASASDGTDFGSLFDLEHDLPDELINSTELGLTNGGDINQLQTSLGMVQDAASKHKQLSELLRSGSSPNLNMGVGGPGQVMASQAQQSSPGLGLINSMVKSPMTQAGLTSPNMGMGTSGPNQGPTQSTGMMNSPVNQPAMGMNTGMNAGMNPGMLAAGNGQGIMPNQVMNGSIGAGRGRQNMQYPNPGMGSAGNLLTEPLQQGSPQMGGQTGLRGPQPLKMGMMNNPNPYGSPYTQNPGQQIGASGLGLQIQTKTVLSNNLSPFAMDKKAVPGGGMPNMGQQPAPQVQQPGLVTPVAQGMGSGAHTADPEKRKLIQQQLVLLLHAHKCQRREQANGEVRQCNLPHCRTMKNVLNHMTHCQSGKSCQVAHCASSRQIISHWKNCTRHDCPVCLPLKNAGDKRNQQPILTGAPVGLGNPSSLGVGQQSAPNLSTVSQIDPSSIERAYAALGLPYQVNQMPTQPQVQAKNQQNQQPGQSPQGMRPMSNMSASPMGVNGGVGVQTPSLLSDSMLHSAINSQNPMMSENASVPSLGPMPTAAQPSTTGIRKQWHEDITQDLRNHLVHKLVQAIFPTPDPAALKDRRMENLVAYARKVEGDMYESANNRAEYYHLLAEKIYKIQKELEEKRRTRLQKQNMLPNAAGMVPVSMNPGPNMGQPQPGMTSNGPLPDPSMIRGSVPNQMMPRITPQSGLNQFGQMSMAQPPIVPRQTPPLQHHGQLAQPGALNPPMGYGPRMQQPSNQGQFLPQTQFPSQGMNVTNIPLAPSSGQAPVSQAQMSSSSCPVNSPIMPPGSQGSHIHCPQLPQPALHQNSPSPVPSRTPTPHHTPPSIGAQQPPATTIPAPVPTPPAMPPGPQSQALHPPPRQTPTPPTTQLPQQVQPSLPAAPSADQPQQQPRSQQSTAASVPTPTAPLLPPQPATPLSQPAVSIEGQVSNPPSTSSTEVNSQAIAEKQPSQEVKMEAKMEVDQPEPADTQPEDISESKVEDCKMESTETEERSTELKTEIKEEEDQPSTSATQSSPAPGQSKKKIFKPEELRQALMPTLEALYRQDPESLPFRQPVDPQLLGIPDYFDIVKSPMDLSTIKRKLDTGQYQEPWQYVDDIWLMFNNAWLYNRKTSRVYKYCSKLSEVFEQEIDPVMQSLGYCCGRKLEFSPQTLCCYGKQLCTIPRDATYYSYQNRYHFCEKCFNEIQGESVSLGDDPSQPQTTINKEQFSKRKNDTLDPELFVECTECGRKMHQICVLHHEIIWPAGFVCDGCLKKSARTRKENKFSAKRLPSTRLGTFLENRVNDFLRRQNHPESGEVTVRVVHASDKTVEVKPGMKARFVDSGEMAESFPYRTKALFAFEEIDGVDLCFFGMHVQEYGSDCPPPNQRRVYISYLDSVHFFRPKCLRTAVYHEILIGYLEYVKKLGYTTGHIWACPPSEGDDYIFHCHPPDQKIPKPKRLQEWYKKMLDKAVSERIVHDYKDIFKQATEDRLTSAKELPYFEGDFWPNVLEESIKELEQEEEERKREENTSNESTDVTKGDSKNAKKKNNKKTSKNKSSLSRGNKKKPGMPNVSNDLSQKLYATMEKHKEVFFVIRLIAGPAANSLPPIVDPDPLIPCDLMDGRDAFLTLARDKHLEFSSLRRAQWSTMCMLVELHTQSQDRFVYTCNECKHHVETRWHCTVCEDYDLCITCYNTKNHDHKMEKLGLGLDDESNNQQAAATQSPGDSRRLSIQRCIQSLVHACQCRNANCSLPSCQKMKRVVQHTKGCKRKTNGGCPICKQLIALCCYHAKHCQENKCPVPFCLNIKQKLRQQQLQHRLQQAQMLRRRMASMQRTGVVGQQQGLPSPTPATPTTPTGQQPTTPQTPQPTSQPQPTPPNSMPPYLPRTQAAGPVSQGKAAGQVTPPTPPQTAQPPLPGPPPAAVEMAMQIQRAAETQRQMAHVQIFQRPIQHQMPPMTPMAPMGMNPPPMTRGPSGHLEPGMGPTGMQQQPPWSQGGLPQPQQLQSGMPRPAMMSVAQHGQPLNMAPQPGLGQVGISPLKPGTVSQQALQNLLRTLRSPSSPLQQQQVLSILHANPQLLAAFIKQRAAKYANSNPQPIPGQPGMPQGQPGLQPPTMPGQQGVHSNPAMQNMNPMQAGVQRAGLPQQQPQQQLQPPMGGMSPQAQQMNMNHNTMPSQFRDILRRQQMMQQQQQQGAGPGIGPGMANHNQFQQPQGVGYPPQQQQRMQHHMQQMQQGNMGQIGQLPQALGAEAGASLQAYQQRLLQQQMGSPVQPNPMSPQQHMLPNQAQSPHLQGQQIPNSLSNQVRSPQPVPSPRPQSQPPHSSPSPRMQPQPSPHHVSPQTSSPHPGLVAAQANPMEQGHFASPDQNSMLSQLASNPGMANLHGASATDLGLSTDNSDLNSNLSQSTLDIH
T1 sequence (Q96SW2 whole entry partner): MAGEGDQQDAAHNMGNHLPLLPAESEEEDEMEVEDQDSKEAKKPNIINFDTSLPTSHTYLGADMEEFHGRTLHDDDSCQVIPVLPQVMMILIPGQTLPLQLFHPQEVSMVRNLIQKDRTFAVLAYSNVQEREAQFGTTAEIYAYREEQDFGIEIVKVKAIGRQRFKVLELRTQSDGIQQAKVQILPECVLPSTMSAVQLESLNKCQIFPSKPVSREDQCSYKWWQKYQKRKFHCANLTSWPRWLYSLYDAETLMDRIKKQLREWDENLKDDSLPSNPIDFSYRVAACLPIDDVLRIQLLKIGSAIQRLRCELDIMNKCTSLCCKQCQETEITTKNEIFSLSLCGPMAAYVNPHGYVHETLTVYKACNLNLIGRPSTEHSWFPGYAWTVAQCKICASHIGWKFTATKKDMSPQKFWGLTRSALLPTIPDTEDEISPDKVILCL

Row | SMILES | Activity [1] [%] | Activity [2] [%] | Activity [3] [%] | further results
1 | Cc1noc(C)c1-c1ccc2c(c1)nc([C@@H]1CCCC(=O)N1c1ccc(F)c(F)c1)n2C1CCN(c2cccc3c2C(=O)N(C2CCC(=O)NC2=O)C3=O)CC1 (stereo partly specified) | < 1 | < 1 | 39 | 
2 | Cc1noc(C)c1-c1ccc2c(c1)nc([C@@H]1CCCC(=O)N1c1ccc(F)c(F)c1)n2C1CCN(C(=O)CCOCCNc2ccc3c(c2)C(=O)N(C2CCC(=O)NC2=O)C3=O)CC1 (stereo partly specified) | < 1 | < 1 | 18 | 
3 | Cc1noc(C)c1-c1ccc2c(c1)nc([C@@H]1CCCC(=O)N1c1ccc(F)c(F)c1)n2C1CCN(C(=O)CCOCCOCCOCCOCCNc2ccc3c(c2)C(=O)N(C2CCC(=O)NC2=O)C3=O)CC1 (stereo partly specified) | < 1 | < 1 | 28 | 
4 | CNC(=O)N1CCc2c(c(N3CCCc4cc(-c5cnn(C)c5)c(C(F)F)cc43)nn2C2CCN(C(=O)CCOCCOCCOCCOCCNc3ccc4c(c3)C(=O)N(C3CCC(=O)NC3=O)C4=O)CC2)C1 (stereo unspecified) | 3 | 7 | 18 | IC50 (SK-HEP1 [4]): > 20 µM; IC50 [5]: > 20 µM
5 | CC(=O)N1CCC(n2c([C@@H]3CCCC(=O)N3c3ccc(F)c(F)c3)nc3cc(-c4c(C)noc4C)ccc32)CC1 |  |  |  | IC50 [6]: 0.026 µM; IC50 (SK-HEP1 [4]): 4.36 µM; IC50 [5]: > 20 µM; Activity (SK-HEP1 [7]): 117%; Activity (SK-HEP1 [8]): 101%; Activity (Mus musculus): inactive; Activity [9]: inactive; Activity [10]: 105%; Activity [11]: 97%
6 | CO[C@H]1CC[C@H](n2c([C@@H]3CCCC(=O)N3c3ccc(F)c(F)c3)nc3cc(-c4c(C)noc4C)ccc32)CC1 [INOBRODIB] |  |  |  | IC50 (SK-HEP1 [4]): 4.68 µM; IC50 [5]: 9.7 µM; Activity (SK-HEP1 [7]): 95%; Activity (SK-HEP1 [8]): 96%
7 | Cc1noc(C)c1-c1ccc2c(c1)nc([C@@H]1CCCC(=O)N1c1ccc(F)c(F)c1)n2C1CCN(C2CN(c3cccc4c3C(=O)N(C3CCC(=O)NC3=O)C4=O)C2)CC1 (stereo partly specified) | < 1 | < 1 | 4 | 
8 | Cc1noc(C)c1-c1ccc2c(c1)nc([C@@H]1CCCC(=O)N1c1ccc(F)c(F)c1)n2C1CCN(C(=O)CCOCCOCCOCCNc2ccc3c(c2)C(=O)N(C2CCC(=O)NC2=O)C3=O)CC1 (stereo partly specified) | < 1 | < 1 | 19 | 
9 | Cc1noc(C)c1-c1ccc2c(c1)nc([C@@H]1CCCC(=O)N1c1ccc(F)c(F)c1)n2C1CCN(C(=O)CCOCCNc2cccc3c2C(=O)N(C2CCC(=O)NC2=O)C3=O)CC1 (stereo partly specified) | < 1 | < 1 | 15 | 
10 | CC(=O)N1CC(n2c([C@@H]3CCCC(=O)N3c3ccc(F)c(F)c3)nc3cc(-c4c(C)noc4C)ccc32)C1 |  |  |  | IC50 [6]: 0.025 µM
11 | Cc1noc(C)c1-c1ccc2c(c1)nc([C@@H]1CCCC(=O)N1c1ccc(F)c(F)c1)n2C1CN(C2CN(c3cccc4c3C(=O)N(C3CCC(=O)NC3=O)C4=O)C2)C1 (stereo partly specified) | 3 | < 1 | 23 | 
12 | Cc1noc(C)c1-c1ccc2c(c1)nc([C@@H]1CCCC(=O)N1c1ccc(F)c(F)c1)n2C1CN(C2CCN(c3cccc4c3C(=O)N(C3CCC(=O)NC3=O)C4=O)CC2)C1 (stereo partly specified) | < 1 | 8 | 28 | 
13 | Cc1noc(C)c1-c1ccc2c(c1)nc([C@@H]1CCCC(=O)N1c1ccc(F)c(F)c1)n2C1CCN(C(=O)CNc2ccc3c(c2)C(=O)N(C2CCC(=O)NC2=O)C3=O)CC1 (stereo partly specified) | < 1 | 2 | 3 | 

More lines, main results first:

Row | Activity [1] [%] | Activity [2] [%] | Activity [3] [%] | SMILES | further results
14 | 4 | 6 | 9 | Cc1noc(C)c1-c1ccc2c(c1)nc([C@@H]1CCCC(=O)N1c1ccc(F)c(F)c1)n2C1CCN(C2CCN(c3cccc4c3C(=O)N(C3CCC(=O)NC3=O)C4=O)CC2)CC1 (stereo partly specified) | 
15 | 6 | 9 | 32 | Cc1noc(C)c1-c1ccc2c(c1)nc([C@@H]1CCCC(=O)N1c1ccc(F)c(F)c1)n2C1CCN(c2ccc3c(c2)C(=O)N(C2CCC(=O)NC2=O)C3=O)CC1 (stereo partly specified) | 
16 | 4 | < 1 | 26 | Cc1noc(C)c1-c1ccc2c(c1)nc([C@@H]1CCCC(=O)N1c1ccc(F)c(F)c1)n2C1CN(C2CCN(c3ccc4c(c3)C(=O)N(C3CCC(=O)NC3=O)C4=O)CC2)C1 (stereo partly specified) | 
17 | 9 | 5 | 38 | Cc1noc(C)c1-c1ccc2c(c1)nc([C@@H]1CCCC(=O)N1c1ccc(F)c(F)c1)n2C1CCN(C2CCN(c3ccc4c(c3)C(=O)N(C3CCC(=O)NC3=O)C4=O)CC2)CC1 (stereo partly specified) | 
18 | < 1 | 2 | 25 | Cc1noc(C)c1-c1ccc2c(c1)nc([C@@H]1CCCC(=O)N1c1ccc(F)c(F)c1)n2C1CCN(C(=O)CCOCCOCCNc2cccc3c2C(=O)N(C2CCC(=O)NC2=O)C3=O)CC1 (stereo partly specified) | 
19 | < 1 | < 1 | 18 | Cc1noc(C)c1-c1ccc2c(c1)nc([C@@H]1CCCC(=O)N1c1ccc(F)c(F)c1)n2C1CCN(C(=O)CNc2cccc3c2C(=O)N(C2CCC(=O)NC2=O)C3=O)CC1 (stereo partly specified) | 
20 | < 1 | < 1 | 8 | Cc1noc(C)c1-c1ccc2c(c1)nc([C@@H]1CCCC(=O)N1c1ccc(F)c(F)c1)n2C1CCN(C(=O)CCOCCOCCOCCNc2cccc3c2C(=O)N(C2CCC(=O)NC2=O)C3=O)CC1 (stereo partly specified) | 
21 | < 1 | < 1 | 29 | Cc1noc(C)c1-c1ccc2c(c1)nc([C@@H]1CCCC(=O)N1c1ccc(F)c(F)c1)n2C1CCN(C(=O)CCOCCOCCNc2ccc3c(c2)C(=O)N(C2CCC(=O)NC2=O)C3=O)CC1 (stereo partly specified) | 
22 | < 1 | < 1 | 27 | Cc1noc(C)c1-c1ccc2c(c1)nc([C@@H]1CCCC(=O)N1c1ccc(F)c(F)c1)n2C1CN(C2CN(c3ccc4c(c3)C(=O)N(C3CCC(=O)NC3=O)C4=O)C2)C1 (stereo partly specified) | 
23 | < 1 | < 1 | 49 | Cc1noc(C)c1-c1ccc2c(c1)nc([C@@H]1CCCC(=O)N1c1ccc(F)c(F)c1)n2C1CCN(C(=O)CCOCCOCCOCCOCCNc2cccc3c2C(=O)N(C2CCC(=O)NC2=O)C3=O)CC1 (stereo partly specified) | 
